In ChEMBL document CHEMBL4251615, “Discovery of anilino-furo[2,3-d]pyrimidine derivatives as dual inhibitors of EGFR/HER2 tyrosine kinase and their anticancer activity” (Eur J Med Chem, 2018):

Experiments:
Format in all cases: functional
OVCAR-5 = assay: Growth inhibition of human OVCAR5 cells assessed as cell growth at 10 uM incubated for 48 hrs by sulforhodamine B assay relative to control; details: OVCAR-5, 48 h, read-out: Activity
SF-268 = assay: Growth inhibition of human SF268 cells assessed as cell growth at 10 uM incubated for 48 hrs by sulforhodamine B assay relative to control; details: SF-268, 48 h, read-out: Activity
KM12 = assay: Growth inhibition of human KM12 cells assessed as cell growth at 10 uM incubated for 48 hrs by sulforhodamine B assay relative to control; details: KM12, 48 h, read-out: Activity
SF-539 = assay: Growth inhibition of human SF539 cells assessed as cell growth at 10 uM incubated for 48 hrs by sulforhodamine B assay relative to control; details: SF-539, 48 h, read-out: Activity
Hs-578T = assay: Growth inhibition of human Hs 578T cells assessed as cell growth at 10 uM incubated for 48 hrs by sulforhodamine B assay relative to control; details: read-out: Activity
MDA-MB-231 = assay: Growth inhibition of human MDA-MB-231 cells assessed as cell growth at 10 uM incubated for 48 hrs by sulforhodamine B assay relative to control; details: MDA-MB-231, 48 h, read-out: Activity
SF-295 = assay: Growth inhibition of human SF295 cells assessed as cell growth at 10 uM incubated for 48 hrs by sulforhodamine B assay relative to control; details: SF-295, 48 h, read-out: Activity
K562 = assay: Growth inhibition of human K562 cells assessed as cell growth at 10 uM incubated for 48 hrs by sulforhodamine B assay relative to control; details: K562, 48 h, read-out: Activity
HCT-15 = assay: Growth inhibition of human HCT15 cells assessed as cell growth at 10 uM incubated for 48 hrs by sulforhodamine B assay relative to control; details: HCT-15, 48 h, read-out: Activity
SR = assay: Growth inhibition of human SR cells assessed as cell growth at 10 uM incubated for 48 hrs by sulforhodamine B assay relative to control; details: read-out: Activity
NCI-H23 = assay: Growth inhibition of human NCI-H23 cells assessed as cell growth at 10 uM incubated for 48 hrs by sulforhodamine B assay relative to control; details: NCI-H23, 48 h, read-out: Activity
SK-MEL-28 = assay: Growth inhibition of human SK-MEL-28 cells assessed as cell growth at 10 uM incubated for 48 hrs by sulforhodamine B assay relative to control; details: SK-MEL-28, 48 h, read-out: Activity
SW-620 = assay: Growth inhibition of human SW620 cells assessed as cell growth at 10 uM incubated for 48 hrs by sulforhodamine B assay relative to control; details: SW-620, 48 h, read-out: Activity
UACC-62 = assay: Growth inhibition of human UACC62 cells assessed as cell growth at 10 uM incubated for 48 hrs by sulforhodamine B assay relative to control; details: UACC-62, 48 h, read-out: Activity
SNB-19 = assay: Growth inhibition of human SNB19 cells assessed as cell growth at 10 uM incubated for 48 hrs by sulforhodamine B assay relative to control; details: SNB-19, 48 h, read-out: Activity
LOX IMVI = assay: Growth inhibition of human LOXIMVI cells assessed as cell growth at 10 uM incubated for 48 hrs by sulforhodamine B assay relative to control; details: read-out: Activity
HOP-62 = assay: Growth inhibition of human HOP62 cells assessed as cell growth at 10 uM incubated for 48 hrs by sulforhodamine B assay relative to control; details: HOP-62, 48 h, read-out: Activity
HCC 2998 = assay: Growth inhibition of human HCC2998 cells assessed as cell growth at 10 uM incubated for 48 hrs by sulforhodamine B assay relative to control; details: HCC 2998, 48 h, read-out: Activity
UO-31 = assay: Growth inhibition of human UO31 cells assessed as cell growth at 10 uM incubated for 48 hrs by sulforhodamine B assay relative to control; details: UO-31, 48 h, read-out: Activity
SK-OV-3 = assay: Growth inhibition of human SKOV3 cells assessed as cell growth at 10 uM incubated for 48 hrs by sulforhodamine B assay relative to control; details: SK-OV-3, 48 h, read-out: Activity
T47D = assay: Growth inhibition of human T47D cells assessed as cell growth at 10 uM incubated for 48 hrs by sulforhodamine B assay relative to control; details: read-out: Activity
SNB-75 = assay: Growth inhibition of human SNB75 cells assessed as cell growth at 10 uM incubated for 48 hrs by sulforhodamine B assay relative to control; details: SNB-75, 48 h, read-out: Activity
CAKI-1 = assay: Growth inhibition of human Caki1 cells assessed as cell growth at 10 uM incubated for 48 hrs by sulforhodamine B assay relative to control; details: CAKI-1, 48 h, read-out: Activity
M14 = assay: Growth inhibition of human M14 cells assessed as cell growth at 10 uM incubated for 48 hrs by sulforhodamine B assay relative to control; details: M14, 48 h, read-out: Activity
OVCAR-8 = assay: Growth inhibition of human OVCAR8 cells assessed as cell growth at 10 uM incubated for 48 hrs by sulforhodamine B assay relative to control; details: OVCAR-8, 48 h, read-out: Activity
OVCAR-4 = assay: Growth inhibition of human OVCAR4 cells assessed as cell growth at 10 uM incubated for 48 hrs by sulforhodamine B assay relative to control; details: OVCAR-4, 48 h, read-out: Activity
Malme-3M = assay: Growth inhibition of human MALME-3M cells assessed as cell growth at 10 uM incubated for 48 hrs by sulforhodamine B assay relative to control; details: read-out: Activity
HT-29 = assay: Growth inhibition of human HT-29 cells assessed as cell growth at 10 uM incubated for 48 hrs by sulforhodamine B assay relative to control; details: HT-29, 48 h, read-out: Activity
ACHN = assay: Growth inhibition of human ACHN cells assessed as cell growth at 10 uM incubated for 48 hrs by sulforhodamine B assay relative to control; details: read-out: Activity
MOLT-4 = assay: Growth inhibition of human MOLT4 cells assessed as cell growth at 10 uM incubated for 48 hrs by sulforhodamine B assay relative to control; details: MOLT-4, 48 h, read-out: Activity
U-251 = assay: Growth inhibition of human U251 cells assessed as cell growth at 10 uM incubated for 48 hrs by sulforhodamine B assay relative to control; details: U-251, 48 h, read-out: Activity
CCRF-CEM = assay: Growth inhibition of human CCRF-CEM cells assessed as cell growth at 10 uM incubated for 48 hrs by sulforhodamine B assay relative to control; details: read-out: Activity
NCI/ADR-RES = assay: Growth inhibition of human NCI/ADR-RES cells assessed as cell growth at 10 uM incubated for 48 hrs by sulforhodamine B assay relative to control; details: read-out: Activity
NCI-H226 = assay: Growth inhibition of human NCI-H226 cells assessed as cell growth at 10 uM incubated for 48 hrs by sulforhodamine B assay relative to control; details: NCI-H226, 48 h, read-out: Activity

Row | Structure (SMILES) | growth at 10 µM (OVCAR-5) [%] | growth at 10 µM (SF-268) [%] | growth at 10 µM (KM12) [%] | growth at 10 µM (SF-539) [%] | growth at 10 µM (Hs-578T) [%] | growth at 10 µM (MDA-MB-231) [%] | growth at 10 µM (SF-295) [%] | growth at 10 µM (K562) [%] | growth at 10 µM (HCT-15) [%] | growth at 10 µM (SR) [%] | growth at 10 µM (NCI-H23) [%] | growth at 10 µM (SK-MEL-28) [%] | growth at 10 µM (SW-620) [%] | growth at 10 µM (UACC-62) [%] | growth at 10 µM (SNB-19) [%] | growth at 10 µM (LOX IMVI) [%] | growth at 10 µM (HOP-62) [%] | growth at 10 µM (HCC 2998) [%] | growth at 10 µM (UO-31) [%] | growth at 10 µM (SK-OV-3) [%] | further results
1 | Cc1cccc(Nc2ncnc3oc(C)c(C(=O)NCCO)c23)c1 | 95.3 | 98.4 | 93.9 | 92.5 | 100 | 84.1 | 96.3 | 90.2 | 93.7 | 90.8 | 92.8 | 102 | 96 | 83.1 | 103 | 93 | 98.2 | 99.4 | 86.2 | 94.8 | growth at 10 µM (T47D): 84.3%; growth at 10 µM (SNB-75): 110%; growth at 10 µM (CAKI-1): 87.2%; growth at 10 µM (M14): 103%; growth at 10 µM (OVCAR-8): 104%; growth at 10 µM (OVCAR-4): 95%; growth at 10 µM (Malme-3M): 109%; growth at 10 µM (HT-29): 99.8%; growth at 10 µM (ACHN): 94.8%; growth at 10 µM (MOLT-4): 57.4%; growth at 10 µM (U-251): 105%; growth at 10 µM (CCRF-CEM): 74%; growth at 10 µM (NCI/ADR-RES): 92.4%; growth at 10 µM (NCI-H226): 93.3%
2 | CCOC(=O)c1c(C)oc2ncnc(Nc3ccc(OCc4cccc(C)c4)cc3)c12 | 107 | 106 | 96.1 | 95.4 | 102 | 88.6 | 101 | 98 | 99.5 | 116 | 94.9 | 101 | 101 | 80.7 | 99.7 | 91.8 | 101 | 114 | 101 | 96.7 | growth at 10 µM (T47D): 87.3%; growth at 10 µM (SNB-75): 106%; growth at 10 µM (CAKI-1): 95.6%; growth at 10 µM (M14): 86.5%; growth at 10 µM (OVCAR-8): 106%; growth at 10 µM (OVCAR-4): 105%; growth at 10 µM (Malme-3M): 126%; growth at 10 µM (HT-29): 87.5%; growth at 10 µM (ACHN): 98.1%; growth at 10 µM (MOLT-4): 115%; growth at 10 µM (U-251): 96.4%; growth at 10 µM (CCRF-CEM): 107%; growth at 10 µM (NCI/ADR-RES): 97%; growth at 10 µM (NCI-H226): 101%
3 | CCOC(=O)c1c(C)oc2ncnc(Nc3ccc(OCc4ccc(Cl)c(Cl)c4)cc3)c12 | 95 | 104 | 102 | 98.4 | 104 | 84.3 | 94.7 | 93.8 | 104 | 90 | 95.8 | 102 | 105 | 93.2 | 103 | 95.1 | 101 | 109 | 98.4 | 98.9 | growth at 10 µM (T47D): 90.1%; growth at 10 µM (SNB-75): 102%; growth at 10 µM (CAKI-1): 96.1%; growth at 10 µM (M14): 101%; growth at 10 µM (OVCAR-8): 113%; growth at 10 µM (OVCAR-4): 121%; growth at 10 µM (Malme-3M): 131%; growth at 10 µM (HT-29): 99.7%; growth at 10 µM (ACHN): 102%; growth at 10 µM (MOLT-4): 105%; growth at 10 µM (U-251): 104%; growth at 10 µM (CCRF-CEM): 110%; growth at 10 µM (NCI/ADR-RES): 103%; growth at 10 µM (NCI-H226): 94.4%
4 | CCCNC(=O)c1c(C)oc2ncnc(Nc3cccc(Cl)c3)c12 | 112 | 95.5 | 94.6 | 99.1 | 104 | 88.2 | 90.1 | 90.1 | 101 | 86 | 91.5 | 112 | 106 | 83.4 | 106 | 96.4 | 87.7 | 123 | 72.4 | 85.6 | growth at 10 µM (T47D): 53.5%; growth at 10 µM (SNB-75): 94.6%; growth at 10 µM (CAKI-1): 101%; growth at 10 µM (M14): 115%; growth at 10 µM (OVCAR-8): 96.8%; growth at 10 µM (OVCAR-4): 101%; growth at 10 µM (Malme-3M): 121%; growth at 10 µM (HT-29): 93.8%; growth at 10 µM (ACHN): 107%; growth at 10 µM (MOLT-4): 95.4%; growth at 10 µM (U-251): 90.9%; growth at 10 µM (CCRF-CEM): 93.9%; growth at 10 µM (NCI/ADR-RES): 94.1%; growth at 10 µM (NCI-H226): 90%
